Results reported in PMC6478823, “A suite of phenotypic assays to ensure pipeline diversity when prioritizing drug-like Cryptosporidium growth inhibitors” (Nature Communications, 2019).
“And” between values parts separate entries of the source, which are not always exact repeats. Identical values can stand only once.

Legend:
C. parvum = experiment: DNA replication assay (EdU incorporation); format: cell-based, Cryptosporidium parvum; settings: compound at EC90; for DNA Synthesis Assay: Mean % Inhibition of EdU-labeling (normalized to parasite numbers), Average: average of replicates; for DNA Synthesis Assay: Mean % Inhibition of EdU-labeling (normalized to parasite numbers), Replicate 1: single replicate 1; for DNA Synthesis Assay: Mean % Inhibition of EdU-labeling (normalized to parasite numbers), Replicate 2: single replicate 2; for DNA synthesis: yes/no grouping by phenotypic assay result; for DNA Synthesis Assay: Mean % Inhibition of EdU-labeling (normalized to parasite numbers), Replicate 3: single replicate 3
[1] = system: C. parvum DMC1 expression; experiment: Sexual differentiation assay (DMC1 expression); format: cell-based, Cryptosporidium parvum; settings: for Asexual to sexual differentiation: Mean % DMC1 inhibition (normalized to host nuclei), Average: average of replicates; for Asexual to sexual differentiation: Mean % DMC1 inhibition (normalized to host nuclei), Replicate 1a: single replicate 1; for Asexual to sexual differentiation: Mean % DMC1 inhibition (normalized to host nuclei), Replicate 2a: single replicate 2; for 48 - 72 h DMC1 (asexual to sexual conversion): Mean % DMC1 inhibition (normalized to host nuclei): replicates 1-2; for Asexual to sexual differentiation: Mean % DMC1 inhibition (normalized to host nuclei), Replicate 3a: single replicate 3
Description: We utilized DMC1 as a marker of C. parvum sexual development, and used the anti-DMC1 monoclonal antibody to develop a moderate-throughput high-content microscopy assay for characterizing anticryptosporidial compounds (Fig. 6a). […] Therefore, in order to enable numerical comparison of the ability of compounds to block sexual development with moderate throughput, we adopted a strategy of reporting the percent inhibition of DMC1 expression by the previously determined EC90 of each compound in the standard asexual development assay (Fig. 6c and Supplementary Table 2).
Fig. 6 Assay to measure asexual-to-sexual-stage conversion. a Schematic of the experimental approach. […] For b and c the mean and SD combined from at least two biological replicates with four technical replicates per experiment are shown. […] At given time points post-infection, infected cells were washed 3 times with PBS containing 111 mM of D-galactose, fixed for 15 min at room temperature with 4% paraformaldehyde in PBS, and permeabilized with 0.25% triton X-100 in PBS for 10 min at 37 °C. Cells were then washed 3 times with PBS and blocked at least overnight at 4 °C with 1% BSA in PBS (blocking buffer). Cells were stained with monoclonal antibody (1H10G7), either neat culture supernatant or 12.8 µg/mL of purified IgG in blocking buffer for 1 h at 37 °C, followed by 2 washes with PBS. Cells were then co-stained with a 1:500 dilution (4 µg/mL) of Alexa Fluor 568 goat anti-mouse IgG (Invitrogen, catalog# A-11004) and 1.33 µg/mL fluorescein-labeled Vicia villosa lectin (Vector Laboratories, catalog# FL-1231) diluted in blocking buffer for 1 h at 37 °C. Stains were then removed and 0.09 mM Hoechst 33258 (AnaSpec, catalog# AS-83219) also diluted in blocking buffer was added for another 15 min at 37 °C, followed by 2 PBS washes and imaging on a Nikon Eclipse Ti2000 epifluorescence microscope run with NIS-Elements Advanced Research software (Nikon, USA) and equipped with an EXi blue fluorescent microscopy camera (QImaging, Canada). For enumerating parasites, tiled 2 × 2 images with 15% overlapping edges were taken using a 40 × dry objective (0.7 NA), and for finer details, Z stack images were acquired using a 60 × oil objective (1.4 NA). Lectin positive cells in focus were first counted, followed by DMC1.
For compound dose-response studies, the same assay was performed in 384-well plates and imaged using a 20 × dry objective (NA = 0.45). Tiled 4 × 4 to 6 × 6 images were taken. Images were analyzed using ImageJ software and the custom macro provided in Supplementary Method 2.

[2] = compound at asexual EC90, 48-72 h

| SMILES | DNA Synthesis Assay: Mean % Inhibition of EdU-labeling (normalized to parasite numbers), Average (C. parvum) [%] | DNA Synthesis Assay: Mean % Inhibition of EdU-labeling (normalized to parasite numbers), Replicate 1 (C. parvum) [%] | DNA Synthesis Assay: Mean % Inhibition of EdU-labeling (normalized to parasite numbers), Replicate 2 (C. parvum) [%] | DNA synthesis (C. parvum) | Asexual to sexual differentiation: Mean % DMC1 inhibition (normalized to host nuclei), Average [1, 2] [%] | Asexual to sexual differentiation: Mean % DMC1 inhibition (normalized to host nuclei), Replicate 1a [1, 2] [%] | Asexual to sexual differentiation: Mean % DMC1 inhibition (normalized to host nuclei), Replicate 2a [1, 2] [%] | DNA Synthesis Assay: Mean % Inhibition of EdU-labeling (normalized to parasite numbers), Replicate 3 (C. parvum) [%] | further results |
| --- | --- | --- | --- | --- | --- | --- | --- | --- | --- |
| Oc1c(C(Nc2ccccn2)c2cccc(Oc3ccccc3)c2)ccc2cccnc12 (stereo not drawn) [A-2] | 100.00 | 100 | 100 | yes | 36.33 | 56.25 | 16.42 | – | DNA synthesis (mean % inhibition) (C. parvum; EdU added 9 h post-infection for 2 h): 100.00% |
| Cc1cccc(-n2ncc3c(=O)[nH]c(-n4nc(C)cc4NC(=O)C4CCCC4)nc32)c1 [C-5] | 98.17 | 96.33 | 100.00 | – | 52.89 | 39.80 | 65.99 | – | – |
| [H]/N=C(/NCCCCC)N/N=C/c1c[nH]c2ccc(OC)cc12 [Tegaserod] | -6.72 | -11.69 | -25.63 | no | 12.05 | 41.94 | -17.83 | 17.15 | – |
| O=C(Nc1nc(-c2ccccn2)cs1)c1ccccc1Br [MMV665909] | 90.80 | 100.00 | 100.00 | – | 53.05 | 56.13 | 49.96 | 80.23 | DNA Synthesis Assay: Mean % Inhibition of EdU-labeling (normalized to parasite numbers), Replicate 4 (C. parvum; single replicate 4): 80.99%; DNA Synthesis Assay: Mean % Inhibition of EdU-labeling (normalized to parasite numbers), Replicate 5 (C. parvum; single replicate 5): 92.80% |
| Cc1cn(-c2cc(NC(=O)c3ccc(C)c(Nc4nccc(-c5cccnc5)n4)c3)cc(C(F)(F)F)c2)cn1 [Nilotinib] | 22.05 | 29.68 | 14.41 | – | 70.96 | 66.12 | 75.79 | – | – |
| CSc1ccccc1C(=O)Nc1nc(-c2ccccn2)cs1 [MMV001246] | 72.11 | 57.69 | 70.62 | – | 45.66 | 48.08 | 43.24 | 88.02 | – |
| c1ccc(CNc2nc(Nc3ccccc3)nc3ccccc23)cc1 [B-1] | -31.43 | -48.95 | -39.64 | no | 18.08 | 32.96 | -3.57 | -5.71 | 48 - 72 h DMC1 (asexual to sexual conversion): Mean % DMC1 inhibition (normalized to host nuclei) ([1]; B-1 at log[MMV006169] (µM) 0.22): -6.54% and 4.81%; 48 - 72 h DMC1 (asexual to sexual conversion): Mean % DMC1 inhibition (normalized to host nuclei) ([1]; B-1 at log[MMV006169] (µM) 0.52): -9.41% and 15.73%; 48 - 72 h DMC1 (asexual to sexual conversion): Mean % DMC1 inhibition (normalized to host nuclei) ([1]; B-1 at log[MMV006169] (µM) 0.70): -14.15% and 22.48%; 48 - 72 h DMC1 (asexual to sexual conversion): Mean % DMC1 inhibition (normalized to host nuclei) ([1]; B-1 at log[MMV006169] (µM) 1.00): 25.47% and 51.27%; 48 - 72 h DMC1 (asexual to sexual conversion): Mean % DMC1 inhibition (normalized to host nuclei) ([1]; B-1 at log[MMV006169] (µM) -0.25): 2.94% and -1.61%; 48 - 72 h DMC1 (asexual to sexual conversion): Mean % DMC1 inhibition (normalized to host nuclei) ([1]; B-1 at log[MMV006169] (µM) -0.73): 13.51% and -3.18%; 48 - 72 h DMC1 (asexual to sexual conversion): Mean % DMC1 inhibition (normalized to host nuclei) ([1]; B-1 at log[MMV006169] (µM) -1.21): 14.75% and -24.05%; 48 - 72 h DMC1 (asexual to sexual conversion): Mean % DMC1 inhibition (normalized to host nuclei) ([1]; B-1 at log[MMV006169] (µM) -1.69): 19.37% and -12.74%; 48 - 72 h DMC1 (asexual to sexual conversion): Mean % DMC1 inhibition (normalized to host nuclei) ([1]; B-1 at log[MMV006169] (µM) -2.16): 9.35% and -23.05%; activity in the DMC1 (sexual development) assay relative to asexual assay ([1]; compound added at 48 h, read at 72 h, result in words): less potent when used during the sexual phases of development; Asexual to sexual differentiation: Mean % DMC1 inhibition (normalized to host nuclei), Replicate 3a [1, 2]: 17.22%; Asexual to sexual differentiation: Mean % DMC1 inhibition (normalized to host nuclei), Replicate 4a ([1]; compound at asexual EC90, 48-72 h, single replicate 4): 25.70%; EC50 ([1]; inhibition of DMC1 expression from 48 to 72 h, range in brackets, read-out: 48 − 72 h DMC1 (asexual to sexual conversion): EC50): 11 µM |
| O=C(Nc1ccc(Cl)c(Cl)c1)N1CCN(c2ccc3nncn3n2)CC1 [D-28] | 3.38 | 14.86 | -8.10 | – | 81.40 | 86.90 | 86.80 | – | Asexual to sexual differentiation: Mean % DMC1 inhibition (normalized to host nuclei), Replicate 3a [1, 2]: 70.51% |
| CC(=O)O[C@@]12CO[C@@H]1C[C@H](O)[C@@]1(C)C(=O)[C@H](O)C3=C(C)[C@@H](OC(=O)[C@H](O)[C@@H](NC(=O)OC(C)(C)C)c4ccccc4)C[C@@](O)([C@@H](OC(=O)c4ccccc4)[C@H]21)C3(C)C [Docetaxel] | 16.66 | 33.42 | -0.10 | – | 37.07 | 34.13 | 40.00 | – | – |
